Results reported in patent US10584117B2, “1,3,4-oxadiazole amide derivative compound as histone deacetylase 6 inhibitor, and pharmaceutical composition containing same” (Chong Kun Dang Pharmaceutical Corp., priority 2015, dated 2020).

Molecular target: T1, human recombinant HDAC6 (Homo sapiens, UniProt Q9UBN7)
T1 construct: purchased Calbiochem 382180
T1 sequence (Q9UBN7 1-1215): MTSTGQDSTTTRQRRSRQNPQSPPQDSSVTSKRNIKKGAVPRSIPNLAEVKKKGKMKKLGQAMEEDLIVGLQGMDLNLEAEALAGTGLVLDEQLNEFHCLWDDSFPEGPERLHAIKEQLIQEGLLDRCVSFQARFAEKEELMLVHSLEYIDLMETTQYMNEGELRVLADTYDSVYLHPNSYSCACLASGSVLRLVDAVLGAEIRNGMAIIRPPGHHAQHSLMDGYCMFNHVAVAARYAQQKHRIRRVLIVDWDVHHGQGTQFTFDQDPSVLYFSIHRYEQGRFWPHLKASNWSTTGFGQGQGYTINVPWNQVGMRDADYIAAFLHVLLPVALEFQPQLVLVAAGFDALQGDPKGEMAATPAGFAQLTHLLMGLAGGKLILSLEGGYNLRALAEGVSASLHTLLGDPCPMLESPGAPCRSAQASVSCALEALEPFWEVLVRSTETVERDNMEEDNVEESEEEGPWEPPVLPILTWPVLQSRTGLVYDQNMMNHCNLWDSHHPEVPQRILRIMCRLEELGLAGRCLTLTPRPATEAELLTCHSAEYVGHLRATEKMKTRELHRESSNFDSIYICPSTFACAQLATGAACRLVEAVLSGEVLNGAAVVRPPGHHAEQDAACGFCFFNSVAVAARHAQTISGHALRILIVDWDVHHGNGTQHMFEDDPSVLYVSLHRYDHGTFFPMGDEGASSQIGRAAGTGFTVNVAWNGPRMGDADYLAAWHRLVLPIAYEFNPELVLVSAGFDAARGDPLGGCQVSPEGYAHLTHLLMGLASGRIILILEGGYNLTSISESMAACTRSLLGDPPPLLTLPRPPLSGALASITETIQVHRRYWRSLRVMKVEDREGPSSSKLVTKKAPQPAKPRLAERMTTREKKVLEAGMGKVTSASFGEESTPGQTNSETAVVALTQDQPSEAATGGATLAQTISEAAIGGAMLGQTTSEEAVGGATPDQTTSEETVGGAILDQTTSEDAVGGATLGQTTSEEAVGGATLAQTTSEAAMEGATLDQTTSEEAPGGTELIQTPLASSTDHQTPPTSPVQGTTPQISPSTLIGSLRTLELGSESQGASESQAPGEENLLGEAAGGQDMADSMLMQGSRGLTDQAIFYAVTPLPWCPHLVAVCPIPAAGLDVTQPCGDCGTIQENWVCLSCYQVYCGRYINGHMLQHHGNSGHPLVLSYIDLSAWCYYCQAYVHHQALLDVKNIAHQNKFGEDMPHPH
Assay: HDAC enzyme activity inhibition assay (HDAC6, fluorimetric kit)
Type: biochemical
Details: for HDAC6 selectivity (fold): HDAC6 versus HDAC1; for IC50: same protocol as the HDAC1 test
Experimental: In order to examine the HDAC6 selectivity of the compounds of formula I of the present invention by HDAC1 and HDAC6 enzymatic activity inhibition assays, an experiment was performed using a conventional substance as a control. HDAC enzyme activity was measured using a HDAC Fluorimetric Drug Discovery Kit (BML-AK511, 516) from Enzo Life Science. For the HDAC1 enzyme activity test, human recombinant HDAC1 (BML-SE456) was used as an enzyme source, and Fluor de Lys®-“SIRT1 (BNL-KI177) was used as a substrate. A 5-fold dilution of the compound was seeded into a 96-well plate, and then 0.3 μg of the enzyme and 10 μM of the substrate were added to each well of the plate and allowed to react at 30° C. for 60 minutes. Then, Fluor de Lys®-Developer II (BML-KI176) was added thereto and allowed to react for 30 minutes, after which the fluorescence value (Ex 360, Em 460) was measured using a multi-plate reader (Flexstation 3, Molecular Device). The HDAC6 enzyme was tested using human recombinant HDAC6 (382180) from Calbiochem, according to the same protocol as the HDAC1 enzyme activity test method. Based on the resulting values, each IC50 value was calculated using GraphPad Prism4.0 program.

For `CS(=O)(=O)N1CCC(C(=O)N(Cc2ccc(-c3nnc(C(F)F)o3)cc2F)c2ccccc2)CC1` [Compound 11215, N-(4-(5-(difluoromethyl)-1,3,4-oxadiazol-2-yl)-2-fluorobenzyl)-1-(methylsulfonyl)-N-phenylpiperidine-4-carboxamide], the “HDAC6 selectivity (fold)” value was 1667 fold and the IC50 was 60 nM.

In the case of `CN1CC(C(=O)N(Cc2ccc(-c3nnc(C(F)(F)F)o3)cc2F)c2ccccc2)C1` [Compound 11232, N-(2-fluoro-4-(5-(trifluoromethyl)-1,3,4-oxadiazol-2-yl)benzyl)-1-methyl-N-phenylazetidine-3-carboxamide], the “HDAC6 selectivity (fold)” value is reported as 1923 fold and the IC50 is reported as 52 nM.

With `CCN1CC(C(=O)N(Cc2ccc(-c3nnc(C(F)(F)F)o3)cc2F)c2ccccc2)C1` [Compound 11233, 1-ethyl-N-(2-fluoro-4-(5-(trifluoromethyl)-1,3,4-oxadiazol-2-yl)benzyl)-N-phenylazetidine-3-carboxamide] the “HDAC6 selectivity (fold)” value was 2703 fold and the IC50 was 37 nM.

In the case of `CC(=O)N1CC(C(=O)N(Cc2ccc(-c3nnc(C(F)(F)F)o3)cc2F)c2ccccc2)C1` [Compound 11234, 1-acetyl-N-(2-fluoro-4-(5-(trifluoromethyl)-1,3,4-oxadiazol-2-yl)benzyl)-N-phenylazetidine-3-carboxamide], the “HDAC6 selectivity (fold)” value is reported as 1754 fold and the IC50 is reported as 57 nM.

For `CCC(=O)N1CC(C(=O)N(Cc2ccc(-c3nnc(C(F)(F)F)o3)cc2F)c2ccccc2)C1` [Compound 11235, N-(2-fluoro-4-(5-(trifluoromethyl)-1,3,4-oxadiazol-2-yl)benzyl)-N-phenyl-1-propionylazetidine-3-carboxamide], the “HDAC6 selectivity (fold)” value was 1538 fold and the IC50 was 65 nM.

With `CC(C)C(=O)N1CC(C(=O)N(Cc2ccc(-c3nnc(C(F)(F)F)o3)cc2F)c2ccccc2)C1` [Compound 11236, N-(2-fluoro-4-(5-(trifluoromethyl)-1,3,4-oxadiazol-2-yl)benzyl)-1-isobutyryl-N-phenylazetidine-3-carboxamide] the “HDAC6 selectivity (fold)” value was 1370 fold and the IC50 was 73 nM.

In the case of `CS(=O)(=O)N1CC(C(=O)N(Cc2ccc(-c3nnc(C(F)(F)F)o3)cc2F)c2ccccc2)C1` [Compound 11237, N-(2-fluoro-4-(5-(trifluoromethyl)-1,3,4-oxadiazol-2-yl)benzyl)-1-(methanesulfonyl)-N-phenylazetidine-3-carboxamide], the “HDAC6 selectivity (fold)” value is reported as 2381 fold and the IC50 is reported as 42 nM.

For `CN1CC(C(=O)N(Cc2ccc(-c3nnc(C(F)F)o3)cc2F)c2ccccc2)C1` [Compound 11238, N-(4-(5-(difluoromethyl)-1,3,4-oxadiazol-2-yl)-2-fluorobenzyl)-1-methyl-N-phenylazetidine-3-carboxamide], the “HDAC6 selectivity (fold)” value was 2222 fold and the IC50 was 45 nM.

In the case of `CCN1CC(C(=O)N(Cc2ccc(-c3nnc(C(F)F)o3)cc2F)c2ccccc2)C1` [Compound 11239, N-(4-(5-(difluoromethyl)-1,3,4-oxadiazol-2-yl)-2-fluorobenzyl)-1-ethyl-N-phenylazetidine-3-carboxamide], the “HDAC6 selectivity (fold)” value is reported as 3846 fold and the IC50 is reported as 26 nM.

`CC(C)N1CC(C(=O)N(Cc2ccc(-c3nnc(C(F)F)o3)cc2F)c2ccccc2)C1` [Compound 11240, N-(4-(5-(difluoromethyl)-1,3,4-oxadiazol-2-yl)-2-fluorobenzyl)-1-isopropyl-N-phenylazetidine-3-carboxamide] was tested, and the “HDAC6 selectivity (fold)” value was 2439 fold and the IC50 was 41 nM.

In the case of `CC(=O)N1CC(C(=O)N(Cc2ccc(-c3nnc(C(F)F)o3)cc2F)c2ccccc2)C1` [Compound 11241, 1-acetyl-N-(4-(5-(difluoromethyl)-1,3,4-oxadiazol-2-yl)-2-fluorobenzyl)-N-phenylazetidine-3-carboxamide], the “HDAC6 selectivity (fold)” value is reported as 2857 fold and the IC50 is reported as 35 nM.

In the case of `CCC(=O)N1CC(C(=O)N(Cc2ccc(-c3nnc(C(F)F)o3)cc2F)c2ccccc2)C1` [Compound 11242, N-(4-(5-(difluoromethyl)-1,3,4-oxadiazol-2-yl)-2-fluorobenzyl)-N-phenyl-1-propionylazetidine-3-carboxamide], the “HDAC6 selectivity (fold)” value is reported as 2564 fold and the IC50 is reported as 39 nM.

With `CC(C)C(=O)N1CC(C(=O)N(Cc2ccc(-c3nnc(C(F)F)o3)cc2F)c2ccccc2)C1` [Compound 11243, N-(4-(5-(difluoromethyl)-1,3,4-oxadiazol-2-yl)-2-fluorobenzyl)-1-isobutyryl-N-phenylazetidine-3-carboxamide] the “HDAC6 selectivity (fold)” value was 3125 fold and the IC50 was 32 nM.

For `O=C(C1CN(C(=O)C(F)(F)F)C1)N(Cc1ccc(-c2nnc(C(F)F)o2)cc1F)c1ccccc1` [Compound 11244, N-(4-(5-(difluoromethyl)-1,3,4-oxadiazol-2-yl)-2-fluorobenzyl)-N-phenyl-1-(2,2,2-trifluoroacetyl)azetidine-3-carboxamide], the “HDAC6 selectivity (fold)” value was 1587 fold and the IC50 was 63 nM.

In the case of `CS(=O)(=O)N1CC(C(=O)N(Cc2ccc(-c3nnc(C(F)F)o3)cc2F)c2ccccc2)C1` [Compound 11245, N-(4-(5-(difluoromethyl)-1,3,4-oxadiazol-2-yl)-2-fluorobenzyl)-1-(methylsulfonyl)-N-phenylazetidine-3-carboxamide], the “HDAC6 selectivity (fold)” value is reported as 2128 fold and the IC50 is reported as 47 nM.

With `CC(=O)N(Cc1ccc(-c2nnc(C(F)(F)F)o2)cc1F)c1ccccc1` [Compound 11246, N-(2-fluoro-4-(5-(trifluoromethyl)-1,3,4-oxadiazol-2-yl)benzyl)-N-phenylacetamide] the “HDAC6 selectivity (fold)” value was 758 fold and the IC50 was 132 nM.

For `CC(=O)N(Cc1ccc(-c2nnc(C(F)F)o2)cc1F)c1ccccc1` [Compound 11247, N-(4-(5-(difluoromethyl)-1,3,4-oxadiazol-2-yl)-2-fluorobenzyl)-N-phenylacetamide], the “HDAC6 selectivity (fold)” value was 1887 fold and the IC50 was 53 nM.

With `CN1CC(C(=O)N(Cc2ccc(-c3nnc(C(F)F)o3)cc2F)c2cccc(F)c2)C1` [Compound 11325, N-(4-(5-(difluoromethyl)-1,3,4-oxadiazol-2-yl)-2-fluorobenzyl)-N-(3-fluorophenyl)-1-methylazetidine-3-carboxamide] the “HDAC6 selectivity (fold)” value was 1111 fold and the IC50 was 90 nM.

With `CCN1CC(C(=O)N(Cc2ccc(-c3nnc(C(F)F)o3)cc2F)c2cccc(F)c2)C1` [Compound 11326, N-(4-(5-(difluoromethyl)-1,3,4-oxadiazol-2-yl)-2-fluorobenzyl)-1-ethyl-N-(3-fluorophenyl)azetidine-3-carboxamide] the “HDAC6 selectivity (fold)” value was 1754 fold and the IC50 was 57 nM.

`CCCN1CC(C(=O)N(Cc2ccc(-c3nnc(C(F)F)o3)cc2F)c2cccc(F)c2)C1` [Compound 11327, N-(4-(5-(difluoromethyl)-1,3,4-oxadiazol-2-yl)-2-fluorobenzyl)-N-(3-fluorophenyl)-1-propylazetidine-3-carboxamide] was tested, and the “HDAC6 selectivity (fold)” value was 2041 fold and the IC50 was 49 nM.

`CCCCN1CC(C(=O)N(Cc2ccc(-c3nnc(C(F)F)o3)cc2F)c2cccc(F)c2)C1` [Compound 11328, 1-butyl-N-(4-(5-(difluoromethyl)-1,3,4-oxadiazol-2-yl)-2-fluorobenzyl)-N-(3-fluorophenyl)azetidine-3-carboxamide] was tested, and the “HDAC6 selectivity (fold)” value was 1235 fold and the IC50 was 81 nM.

With `CC(C)N1CC(C(=O)N(Cc2ccc(-c3nnc(C(F)F)o3)cc2F)c2cccc(F)c2)C1` [Compound 11329, N-(4-(5-(difluoromethyl)-1,3,4-oxadiazol-2-yl)-2-fluorobenzyl)-N-(3-fluorophenyl)-1-isopropylazetidine-3-arboxamide] the “HDAC6 selectivity (fold)” value was 1786 fold and the IC50 was 56 nM.
